In patent publication US6737383B1, “Herbicidal oxadiazolidines” (priority 1999, dated 2004):

How the values were obtained:
smallflower flatsedge = test: Test B flood test smallflower flatsedge; assay type: in vivo, Cyperus difformis
How it was run: (§1)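 Plants were grown to the 2-leaf stage before treatment with test chemical, then held in a greenhouse for twelve to sixteen days. Injury was visually rated against untreated controls on a 0–10 scale, where 0 is no effect and 10 is complete control.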

sugar beet = test: Test B pre/postemergence sugar beet; assay type: in vivo, Beta vulgaris
How it was run: (§2)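 Test chemicals in a non-phytotoxic solvent mixture with surfactant were sprayed preemergence onto planted seeds and postemergence onto plants 2 to 18 cm tall (1- to 4-leaf stage). After twelve to sixteen days in a greenhouse, injury was visually rated against untreated controls from 0 (no effect) to 10 (complete control).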

velvetleaf = test: Test B pre/postemergence velvetleaf; assay type: in vivo, Abutilon theophrasti
How it was run: as §2

crabgrass = test: Test B pre/postemergence crabgrass; assay type: in vivo, Digitaria sanguinalis
How it was run: as §2

surinam grass = test: Test B pre/postemergence surinam grass; assay type: in vivo, Brachiaria decumbens
How it was run: as §2

rape = test: Test B pre/postemergence rape; assay type: in vivo, Brassica napus
How it was run: as §2

wild oat = test: Test B pre/postemergence wild oat; assay type: in vivo, Avena fatua
How it was run: as §2

rice = test: Test B flood test rice; assay type: in vivo, Oryza sativa
How it was run: as §1

blackgrass = test: Test B pre/postemergence blackgrass; assay type: in vivo, Alopecurus myosuroides
How it was run: as §2

bedstraw = test: Test B pre/postemergence bedstraw; assay type: in vivo, Galium aparine
How it was run: as §2

duck salad = test: Test B flood test duck salad; assay type: in vivo, Heteranthera limosa
How it was run: as §1

purple nutsedge = test: Test B pre/postemergence purple nutsedge; assay type: in vivo, Cyperus rotundus
How it was run: as §2

cocklebur = test: Test B pre/postemergence cocklebur; assay type: in vivo, Xanthium strumarium
How it was run: as §2

bamyardgrass = test: Test B flood test barnyardgrass; assay type: in vivo, Echinochloa crus-galli
How it was run: as §1

soybean = test: Test B pre/postemergence soybean; assay type: in vivo, Glycine max
How it was run: as §2

corn = test: Test B pre/postemergence corn; assay type: in vivo, Zea mays
How it was run: as §2

wheat = test: Test B pre/postemergence wheat; assay type: in vivo, Triticum aestivum
How it was run: as §2

[1] = Rate 62 g/ha, headed Pre-emergence (flood test species), scale 0 to 10 (0 no effect, 10 complete control)
[2] = Rate 125 g/ha, Pre-emergence, flood test species, scale 0 to 10 where 0 is no effect and 10 is complete control
[3] = Rate 250 g/ha, Pre-emergence, flood-test species, scale 0 to 10, 0 is no effect, 10 is complete control
[4] = Preemergence, Rate 62 g/ha, scale of 0 to 10 where 0 is no effect and 10 is complete control
[5] = Preemergence, Rate 125 g/ha, 0 is no effect, 10 is complete control
[6] = Preemergence, Rate 250 g/ha, scale 0 to 10, 0 is no effect, 10 is complete control
[7] = Preemergence, Rate 500 g/ha, scale 0 to 10 (0 no effect, 10 complete control)
[8] = Rate 62 g/ha, Postemergence, scale of 0 to 10 where 0 is no effect and 10 is complete control
[9] = Rate 125 g/ha, Postemergence, scale 0 to 10
[10] = Rate 500 g/ha, Postemergence, scale 0 to 10
[11] = Rate 500 g/ha, headed Pre-emergence (flood test species), scale 0 to 10 (0 no effect, 10 complete control)

Cc1ccccc1-n1c(=O)on(C(=O)N(c2ccc(-c3ccccc3)cc2)C(C)C)c1=O [Compound 187]
0: S. Flatsedge plant response rating (smallflower flatsedge; [1]) | S. Flatsedge plant response rating (smallflower flatsedge; [2]) | S. Flatsedge plant response rating (smallflower flatsedge; [3]) | S. Flatsedge plant response rating (smallflower flatsedge; Rate 500 g/ha, Pre-emergence, flood test species, scale 0 to 10 (0 no effect, 10 complete control)) | Sugarbeets plant response rating (sugar beet; [4]) | Sugarbeets plant response rating (0 to 10 scale) (sugar beet; [5]) | Sugarbeets plant response rating (sugar beet; [6]) | Sugarbeets plant response rating (sugar beet; [7]) | Sugarbeets plant response rating (sugar beet; [8]) | Sugarbeets plant response rating (sugar beet; [9]) | Plant response rating (0 to 10; 0 is no effect, 10 is complete control), Sugarbeets (sugar beet; Rate 250 g/ha, Postemergence) | Sugarbeets plant response rating (sugar beet; [10]) | Velvetleaf plant response rating (velvetleaf; [4]) | Velvetleaf plant response rating (velvetleaf; [6]) | Velvetleaf plant response rating (velvetleaf; [7]) | Velvetleaf plant response rating (velvetleaf; [8]) | Velvetleaf plant response rating (velvetleaf; [9]) | Plant response rating (0 to 10; 0 is no effect, 10 is complete control), Velvetleaf (velvetleaf; Rate 250 g/ha, Postemergence) | Crabgrass plant response rating (crabgrass; [4]) | Crabgrass plant response rating (0 to 10 scale) (crabgrass; [5]) | Crabgrass plant response rating (crabgrass; [6]) | Crabgrass plant response rating (crabgrass; [7]) | Crabgrass plant response rating (crabgrass; [8]) | Crabgrass plant response rating (crabgrass; [9]) | Plant response rating (0 to 10; 0 is no effect, 10 is complete control), Crabgrass (crabgrass; Rate 250 g/ha, Postemergence) | Crabgrass plant response rating (crabgrass; [10]) | B. signalgrass plant response rating (surinam grass; [4]) | B. signalgrass plant response rating (0 to 10 scale) (surinam grass; [5]) | B. signalgrass plant response rating (surinam grass; [6]) | B. signalgrass plant response rating (surinam grass; [7]) | B. signalgrass plant response rating (surinam grass; [8]) | B. signalgrass plant response rating (surinam grass; Rate 125 g/ha, Postemergence, scale 0 (no effect) to 10 (complete control)) | Plant response rating, B. signalgrass (surinam grass; Rate 250 g/ha, Postemergence, scale 0 to 10, 0 is no effect, 10 is complete control) | B. signalgrass plant response rating (surinam grass; Rate 500 g/ha, Postemergence, scale 0 to 10, 0 no effect, 10 complete control) | Rape plant response rating (rape; [4]) | Rape plant response rating (0 to 10 scale) (rape; [5]) | Rape plant response rating (rape; [6]) | Rape plant response rating (rape; [7]) | Rape plant response rating (rape; [8]) | Rape plant response rating (rape; [9]) | Plant response rating (0 to 10; 0 is no effect, 10 is complete control), Rape (rape; Rate 250 g/ha, Postemergence) | Rape plant response rating (rape; [10]) | Wild oats plant response rating (wild oat; [4]) | Wild oats plant response rating (wild oat; [6]) | Wild oats plant response rating (wild oat; [7]) | Wild oats plant response rating (wild oat; [8]) | Wild oats plant response rating (wild oat; [9]) | Plant response rating (0 to 10; 0 is no effect, 10 is complete control), Wild oats (wild oat; Rate 250 g/ha, Postemergence) | Rice plant response rating (rice; [1]) | Rice plant response rating (rice; [2]) | Rice plant response rating (rice; [3]) | Plant response rating, Rice (rice; [11]) | Blackgrass plant response rating (blackgrass; [4]) | Blackgrass plant response rating (0 to 10 scale) (blackgrass; [5]) | Blackgrass plant response rating (blackgrass; [6]) | Blackgrass plant response rating (blackgrass; [7]) | Blackgrass plant response rating (blackgrass; [8]) | Blackgrass plant response rating (blackgrass; [9]) | Plant response rating (0 to 10; 0 is no effect, 10 is complete control), Blackgrass (blackgrass; Rate 250 g/ha, Postemergence) | Blackgrass plant response rating (blackgrass; [10]) | Bedstraw plant response rating (bedstraw; [4]) | Bedstraw plant response rating (0 to 10 scale) (bedstraw; [5]) | Bedstraw plant response rating (bedstraw; [6]) | Bedstraw plant response rating (bedstraw; [7]) | Bedstraw plant response rating (bedstraw; [8]) | Bedstraw plant response rating (bedstraw; [9]) | Plant response rating (0 to 10; 0 is no effect, 10 is complete control), Bedstraw (bedstraw; Rate 250 g/ha, Postemergence) | Bedstraw plant response rating (bedstraw; [10]) | Ducksalad plant response rating (duck salad; [1]) | Ducksalad plant response rating (duck salad; [2]) | Ducksalad plant response rating (duck salad; [3]) | Plant response rating, Ducksalad (duck salad; [11]) | Nutsedge plant response rating (purple nutsedge; [4]) | Nutsedge plant response rating (0 to 10 scale) (purple nutsedge; [5]) | Nutsedge plant response rating (purple nutsedge; [6]) | Nutsedge plant response rating (purple nutsedge; [7]) | Nutsedge plant response rating (purple nutsedge; [8]) | Nutsedge plant response rating (purple nutsedge; [9]) | Plant response rating (0 to 10; 0 is no effect, 10 is complete control), Nutsedge (purple nutsedge; Rate 250 g/ha, Postemergence) | Nutsedge plant response rating (purple nutsedge; [10]) | Cocklebur plant response rating (cocklebur; [4]) | Cocklebur plant response rating (0 to 10 scale) (cocklebur; [5]) | Cocklebur plant response rating (cocklebur; [6]) | Cocklebur plant response rating (cocklebur; [7]) | Cocklebur plant response rating (cocklebur; [8]) | Cocklebur plant response rating (cocklebur; [9]) | Plant response rating (0 to 10; 0 is no effect, 10 is complete control), Cocklebur (cocklebur; Rate 250 g/ha, Postemergence) | Cocklebur plant response rating (cocklebur; [10]) | Barnyardgrass plant response rating (bamyardgrass; [1]) | Barnyardgrass plant response rating (bamyardgrass; [2]) | Barnyardgrass plant response rating (bamyardgrass; [3]) | Plant response rating, Barnyardgrass (bamyardgrass; [11]) | Soybean plant response rating (soybean; [4]) | Soybean plant response rating (0 to 10 scale) (soybean; [5]) | Soybean plant response rating (soybean; [6]) | Soybean plant response rating (soybean; [7]) | Soybean plant response rating (soybean; [8]) | Soybean plant response rating (soybean; [9]) | Plant response rating (0 to 10; 0 is no effect, 10 is complete control), Soybean (soybean; Rate 250 g/ha, Postemergence) | Soybean plant response rating (soybean; [10]) | Corn plant response rating (corn; [4]) | Corn plant response rating (0 to 10 scale) (corn; [5]) | Corn plant response rating (corn; [6]) | Corn plant response rating (corn; [7]) | Corn plant response rating (corn; [8]) | Corn plant response rating (corn; [9]) | Plant response rating (0 to 10; 0 is no effect, 10 is complete control), Corn (corn; Rate 250 g/ha, Postemergence) | Corn plant response rating (corn; [10]) | Wheat plant response rating (wheat; [4]) | Wheat plant response rating (wheat; [6]) | Wheat plant response rating (wheat; [7]) | Wheat plant response rating (wheat; [8]) | Wheat plant response rating (wheat; [9]) | Plant response rating (0 to 10; 0 is no effect, 10 is complete control), Wheat (wheat; Rate 250 g/ha, Postemergence)
